According to US5462861A, “Method for improving enzyme activities with noble gases” (American Air Liquide, Chicago Research Center, priority 1993, dated 1995):

How the values were obtained:
Glucose oxidase = Glucose oxidase (Aspergillus niger, UniProt P13006); assay: Glucose oxidase activity under gas; assay type: biochemical; conditions: for effect on glucose oxidase: FIG. 28; for effect: minus = inhibition, dependent upon temperature and substrate concentration
Procedure: (§1) Solution preparation: Optimized w/v solutions are prepared by diluting the enzyme (units/ml) and the substrate (μg/ml) in appropriate buffer (optimized pH and molarity for enzymes). The solutions are used for gas experiments at once to avoid loss of activity. Various enzyme and substrate concentrations and inhibitors may be employed. Physical parameters are varied as required.
(§2) Preparation of samples: Cuvets are filled with 2 ml of substrate solution by means of a gas-tight syringe. Gas-tight serum vials are filled with enzyme and solvent. Sufficient gas is consecutively bubbled in the cuvets and serum vials, with a 1-hr wait between injections to maximize equilibration of gas. All syringes and dead spaces are purged before filling with the appropriate gas. The amount of gas used has been measured sufficient to saturate the solution required.
(§3) Spectrophotometric time-drive, reaction rate, and kinetic analyses: cuvets and serum vials are saturated with gas 40 minutes before the run. A gas-filled syringe is used to retrieve 0.5 ml of enzyme solution to avoid air contact. The 0.5 ml syringe injections of enzyme are made simultaneously to effect a common starting time to for the samples. 7 gases (air, O2, N2, Ne, Ar, Kr, Xe) are run at various temperatures each (from 0° to 60° ). Changes in the rate or final equilibrium of the reaction versus ambient air are recorded. Comparison is also made with added oxygen, and with deoxygenation. Some samples are also prepared under pressure.

[1] = target: Gamma-glutamyl transpeptidase (Homo sapiens, UniProt P19440); assay: Gamma-glutamyl transpeptidase activity under gas; assay type: biochemical; conditions: for effect on α-glutamyltranspeptidase: FIG. 29; for effect: minus = inhibition
Sequence of Gamma-glutamyl transpeptidase (P19440 1-380 limits assumed): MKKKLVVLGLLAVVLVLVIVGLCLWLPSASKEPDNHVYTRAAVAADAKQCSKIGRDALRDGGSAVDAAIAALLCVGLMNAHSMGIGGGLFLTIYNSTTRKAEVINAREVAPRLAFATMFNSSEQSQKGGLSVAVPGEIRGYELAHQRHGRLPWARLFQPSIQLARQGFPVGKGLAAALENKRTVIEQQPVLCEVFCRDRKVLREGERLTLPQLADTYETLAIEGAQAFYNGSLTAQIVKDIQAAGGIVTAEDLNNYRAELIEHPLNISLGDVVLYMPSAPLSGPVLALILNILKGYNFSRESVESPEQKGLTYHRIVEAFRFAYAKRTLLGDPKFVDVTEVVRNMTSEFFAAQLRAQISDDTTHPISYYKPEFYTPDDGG
Procedure: as §1, §2, §3
(§4) In a complete experiment, an enzyme at optimal pH and buffering salt concentration is reacted with 5 substrate concentrations in solution with noble gas at 1 atm. […] Controls are also run after evacuation of solution by vacuum. The reaction is monitored colorimetrically in a scanning spectrophotometer in real time, and the signals are treated mathematically to obtain rate and yield differences. Sample numbers are constant and sufficient to ensure significance of results. All parameters are independently controlled and measured, and more complex experiments are occasionally carried out.

[2] = system: Aspartate aminotransferase; assay: Aspartate aminotransferase activity under gas; assay type: biochemical; conditions: for effect on aspartate aminotransferase: FIG. 30; for effect: minus = inhibition
Procedure: as §1, §2, §3

citrate synthetase = target: T1, citrate synthetase (Homo sapiens, UniProt O75390); assay: Citrate synthetase complex reaction under gas; assay type: biochemical; conditions: for effect on citrate synthase: FIG. 33
T1 sequence (O75390 28-466): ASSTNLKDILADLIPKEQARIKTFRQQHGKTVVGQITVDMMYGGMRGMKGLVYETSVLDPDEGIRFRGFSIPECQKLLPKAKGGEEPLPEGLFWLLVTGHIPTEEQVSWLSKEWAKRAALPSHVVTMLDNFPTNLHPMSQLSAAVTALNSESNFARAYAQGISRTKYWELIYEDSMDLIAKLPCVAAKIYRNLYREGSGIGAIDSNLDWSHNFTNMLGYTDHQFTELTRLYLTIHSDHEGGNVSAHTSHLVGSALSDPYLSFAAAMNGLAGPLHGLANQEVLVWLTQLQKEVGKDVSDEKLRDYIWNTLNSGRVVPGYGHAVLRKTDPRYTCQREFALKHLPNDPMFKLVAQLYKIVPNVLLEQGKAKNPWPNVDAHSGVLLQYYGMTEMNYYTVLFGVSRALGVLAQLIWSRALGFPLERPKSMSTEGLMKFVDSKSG
Procedure: as §1, §2, §3, §4

[3] = system: phenylalanine ammonia lyase; assay: Phenylalanine ammonia lyase activity under gas; assay type: biochemical; conditions: for effect on phenylalanine ammonia lyase: head not printed; for effect on phenylalanine ammonia-lyase: FIG. 32
Procedure: as §1, §2, §3, §4

[4] = target: Triosephosphate isomerase (Homo sapiens, UniProt P60174); assay: Triosephosphate isomerase activity under gas; assay type: biochemical
Sequence of Triosephosphate isomerase (P60174 2-249 limits assumed, species assumed): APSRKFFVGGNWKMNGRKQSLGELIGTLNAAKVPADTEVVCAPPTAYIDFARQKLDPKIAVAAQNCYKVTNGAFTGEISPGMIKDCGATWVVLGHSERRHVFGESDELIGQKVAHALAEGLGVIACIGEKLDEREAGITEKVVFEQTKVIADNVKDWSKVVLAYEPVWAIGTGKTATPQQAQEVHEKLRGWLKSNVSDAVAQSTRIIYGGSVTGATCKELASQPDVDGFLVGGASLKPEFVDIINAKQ
Procedure: as §1, §2, §3, §4

Acetyl S-CoA synthetase = Acetyl S-CoA synthetase activity under gas (coupled sequence or isolated reaction); assay type: biochemical; conditions: for Maximum observed enhancement / maximum observed inhibition: depending upon temperature
Procedure: as §1, §2, §3
Maximum observed enhancement vs maximum observed inhibition (depending upon temperature):
In a coupled complex reaction sequence including hydrolytic enzymes: […]

Tyrosinase [5] = assay: Gas mixture experiment, tyrosinase; assay type: biochemical, Mushroom; conditions: inhibition vs. air control, 25° C.
Procedure: In addition to mixes of noble gases with nitrogen and oxygen, and of mixes of Kr and Xe, serial mixes of Ar and either Xe or Kr were tested. Results for tyrosinase expressed as inhibition vs. air control: Apr. 18, 1991: Gas mix prep: 120 cc serum vials were used to mix the gassed in. These vials were purged using vacuum while 1 atm of argon was maintained in the vial. The vials were purged for 20 seconds in this manner. The vials were under slight pressure which was released through a needle. This is considered 120 cc of Argon. The necessary volumes of Argon and the gas to be mixed with (Xe or Kr) were then introduced into the vials using a 30 cc syringe and needle. We gassed the enzyme using 1 vial of gas mix using 8×10 cc of gas out of the vial. We gassed the cuvette/substrate using a second vial of gas mix using 8×10 cc of gas out of the vial. Argon and Xenon were retrieved from the gas cylinders. […] We determined that we would be unable to retrieve 8×10 cc of gas mix from 1 vial. […] We prepared the Ar/Kr mixes as described above and did 2 replicates of the 10% and 50% mixes.

oxidoreductase enzymes = assay: Oxidoreductases, effects for the class; assay type: biochemical; conditions: for Maxima for class: effect: Class I oxidoreductases, minus = inhibition
Procedure: as §1, §2, §3, §4

tyrosinase [6] = assay: Oxygen addition experiment, tyrosinase; assay type: biochemical
Procedure: as §4

[7] = optimized enzyme concentration, first value column
[8] = optimized enzyme concentration, second value column
[9] = optimized enzyme concentration, third value column
[10] = suboptimal enzyme concen., first value column
[11] = suboptimal enzyme concen., second value column
[12] = suboptimal enzyme concen., third value column
[13] = coupled complex reaction sequence including hydrolytic enzymes
[14] = after addition of oxygen up to a saturating amount to the gas-saturated solution
[15] = gas-saturated solution before addition of oxygen

Sequence of Glucose oxidase (P13006 17-605): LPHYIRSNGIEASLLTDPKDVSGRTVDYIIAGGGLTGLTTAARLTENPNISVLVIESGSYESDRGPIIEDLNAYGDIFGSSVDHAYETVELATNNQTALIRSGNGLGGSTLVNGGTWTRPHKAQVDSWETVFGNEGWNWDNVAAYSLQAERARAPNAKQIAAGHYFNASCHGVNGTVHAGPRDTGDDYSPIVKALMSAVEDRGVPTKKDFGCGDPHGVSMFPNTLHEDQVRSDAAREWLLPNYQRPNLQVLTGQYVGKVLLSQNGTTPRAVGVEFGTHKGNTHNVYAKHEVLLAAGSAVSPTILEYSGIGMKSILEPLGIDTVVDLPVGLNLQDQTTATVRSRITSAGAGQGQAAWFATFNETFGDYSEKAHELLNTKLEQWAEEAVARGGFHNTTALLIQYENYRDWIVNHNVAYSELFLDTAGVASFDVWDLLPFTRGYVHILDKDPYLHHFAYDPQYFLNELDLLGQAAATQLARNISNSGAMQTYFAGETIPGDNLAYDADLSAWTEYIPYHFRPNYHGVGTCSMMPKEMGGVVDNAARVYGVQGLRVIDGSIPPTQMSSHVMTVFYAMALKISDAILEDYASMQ

SMILES | effect on glucose oxidase (Glucose oxidase) | effect (Glucose oxidase) [%] | effect on α-glutamyltranspeptidase [1] | effect [1] [%] | effect [2] [%] | effect on citrate synthetase complex reaction (citrate synthetase; 10° C.) | effect on citrate synthetase complex reaction (citrate synthetase; 25° C.) | effect on citrate synthetase complex reaction (citrate synthetase; 35° C.) | effect on phenylalanine ammonia lyase [3, 7] | effect on phenylalanine ammonia lyase [3, 8] | effect on phenylalanine ammonia lyase [3, 9] | effect on phenylalanine ammonia lyase [3, 10] | effect on phenylalanine ammonia lyase [3, 11] | effect on phenylalanine ammonia lyase [3, 12] | effect ([4]; 10° C., plus = enhancement) | Maximum observed enhancement (Acetyl S-CoA synthetase; [13]) | maximum observed inhibition (Acetyl S-CoA synthetase; [13]) | Maximum observed enhancement (Acetyl S-CoA synthetase; isolated reaction) | maximum observed inhibition (Acetyl S-CoA synthetase; isolated reaction) [%] | Maxima for class: effect (oxidoreductase enzymes) [%] | further results
[Kr] [Kr, krypton] | inhibition | -92.7 | inhibition | -8 | -82 | +37 | +6 | +32 | +7 | +4 | +4 | +3 | +18 | +14 | +12% | +16.1% | -34.6% | +5.0% | -52.6 | -91 | effect on aspartate aminotransferase [2]: inhibition; effect on citrate synthase (citrate synthetase): enhancement; effect on S-acetyl CoA synthetase (Acetyl S-CoA synthetase; 25° C., FIG. 36): enhancement; % inhibited (Tyrosinase [5]; Mix = % Kr in Ar): -77%; effect on oxidoreductase reactions (oxidoreductase enzymes): somewhat lesser effect than xenon
[Xe] [Xe, xenon] | inhibition | -91.6 | inhibition | -7 | -17 | +18 | 0 | +32 | +18 | +3 | +5 | +14 | +8 | +11 | +24% | +18.3% | -25.0% | +15.4% | -39.5 | -95 | effect on aspartate aminotransferase [2]: inhibition; effect on citrate synthase (citrate synthetase): enhancement; inhibition (tyrosinase [6]; [14]): 50%; inhibition (tyrosinase [6]; [15]): 85%; % inhibited (Tyrosinase [5]; Mix = % Xe in AR): -86%; effect on oxidoreductase reactions (oxidoreductase enzymes): largest effect on the rate
[Ar] [Ar, argon] | inhibition | -85.8 | inhibition | -5 | -17 | +25 | -10 | -15 | +6 | +1 | +3 | -1 | +1 | +6.5 | +8% | +67.7% | +34.6% | +75.4% | -27.6 | -91 | effect on aspartate aminotransferase [2]: inhibition; effect on citrate synthase (citrate synthetase): inhibition; effect ([4]; 25° C., inhibition): -37%; inhibition (tyrosinase [6]; [14]): 12%; inhibition (tyrosinase [6]; [15]): 82%; % inhibited (Tyrosinase [5]; Mix = % Kr in Ar): -75%; % inhibited (Tyrosinase [5]; Mix = % Xe in AR): -75%; effect on oxidoreductase reactions (oxidoreductase enzymes): very active at low temperatures
N#N [N2, nitrogen, reference compound] | inhibition |  |  |  |  | -6 | -25 | -17 | +19 | 0 | +6 | 0 | 0 | +12 |  | +31.2% | -39.5% | +35.7% | -118.7 |  | effect on phenylalanine ammonia-lyase [3]: enhancement; effect on acetyl S-CoA synthetase compared with noble gases (Acetyl S-CoA synthetase): much lesser effect than noble gases except at superoptimal temperatures; inhibition (tyrosinase [6]; [14]): zero inhibition; inhibition (tyrosinase [6]; [15]): 84%
[Ne] [Ne, neon] | inhibition | -61.7 |  | -3 | -12 | +11 | +9 | -14 | -2 | +6 | -6 | +15 | 0 | +6 | +4% | +2.3% | -21.9% |  |  | -85 | effect on phenylalanine ammonia-lyase [3]: enhancement
